The conditions of this data set: solid crystalline form; no method or figures given.

The structures appear in SMILES notation.

Consider `C[N+]1(C)C2CC(OC(=O)C(O)(c3cccs3)c3cccs3)CC1C1OC12.NC(N)=O.[Br-]` (stereo not shown) [tiotropium bromide-urea co-crystal], for which the hygroscopical behaviour result was “only very little hygroscopical behaviour”.

For the origin of these results see patent publication US20110257215A1, “NOVEL CO-CRYSTAL OF TIOTROPIUM BROMIDE” (Boehringer Ingelheim Pharma GmbH CO.KG, priority 2006, published 2011).
